This experiment can be described thus: conversion factors for progestogens: amount equivalent to a given amount of levonorgestrel. Particulars: for equivalent to 30 μg levonorgestrel / equivalent to 750 μg levonorgestrel: estimated amount of progestogen; for Conversion factor: relative to levonorgestrel, for guidance, estimate. The source says: In order to determine for a specific biogenic estrogen or synthetic estrogen the amounts that are equivalent to a cited amount of ethinyl estradiol or 17beta-estradiol, the method described by Allen and Doisy may suitably be used (Allen A., Doisy E. A., “An ovarian hormone. Preliminary report on its localization, extraction and partial purification, and action in test animals. JAMA (1923), 81, 819-821). Similarly, in order to determine for a given progestogen the amount equivalent to cited amount of levonorgestrel the method originally described by McPhail can be used (Mc Phail M. K. “The assay of progestin” J Physiol (1934), 83, 145-156). A more recent description of this method can be found in an article written by Overbeek G. A., de Visser J. “A new substance with progestational activity”, Acta Endocrinol (1956), 22, 318-329. It is noted that the aforementioned methods will provide useful indications about the anticipated estrogen potency or progestogen potency of a particular hormone. However, to accurately determine the equivalent amounts that are referred to above, it is advisable to additionally conduct in vivo studies in human females.
For guidance the table below provides the conversion factors for a number of progestogens that may suitably be used in the method of the invention. These conversion factors may be used to calculate, for each progestogen mentioned in the table, an estimate of the amount of said progestogen which is equivalent to a given amount of levonorgestrel.

Turning to `C#C[C@]1(OC(C)=O)CC[C@H]2[C@@H]3CCC4=CC(=NO)CC[C@@H]4[C@H]3CC[C@@]21CC` (mixture of isomers) [norgestimate], the “equivalent to 30 μg levonorgestrel” value was 51 µg, the “equivalent to 750 μg levonorgestrel” value is on record as 1.275 mg and the Conversion factor is 1.7.

With `C[C@]12CCC(=O)C=C1[C@@H]1C[C@@H]1[C@H]1[C@@H]3[C@@H]4C[C@@H]4[C@@]4(CCC(=O)O4)[C@@]3(C)CC[C@@H]12` [drospirenone], the “equivalent to 30 μg levonorgestrel” value is 600 µg, the “equivalent to 750 μg levonorgestrel” value is listed as 15 mg and the Conversion factor is on record as 20.

On to `CC(=O)[C@H]1CC[C@H]2[C@@H]3C=CC4=CC(=O)CC[C@@]4(C)[C@@H]3CC[C@]12C` [dydrogesterone], for which the “equivalent to 30 μg levonorgestrel” value is 4000 µg, the “equivalent to 750 μg levonorgestrel” value was 100 mg and the Conversion factor is given as 133.

In the case of `C#C[C@]1(O)CC[C@H]2[C@@H]3CCC4=CC(=O)CC[C@@H]4[C@H]3CC[C@@]21C` [norethisterone], the “equivalent to 30 μg levonorgestrel” value is 210 µg, the “equivalent to 750 μg levonorgestrel” value is listed as 5.25 mg and the Conversion factor was 7.

(Values after US20040242550A1, “Means and method for hormonal contraception” (priority 2001, published 2004).)
